# Source: US8591935B2, “Methods and compositions for treating pain comprising a statin” (Warsaw Orthopedic, Inc., priority 2008, dated 2013)
# What was measured:
# [1] = tested on: chronic constriction injury (CCI) rats; assay: Mechanical allodynia: von Frey monofilament test in the chronic constriction injury model; type: in vivo, Wister rats
# Description: This model may mimic pain associated with sciatica in humans. Twenty-eight male Wister rats (Charles River Laboratories, Wilmington, Mass.) weighing 300±26 g the day of surgery (Day 1) were used in this study. All experiments were conducted in accordance with the International Association for the Study of Pain guidelines and approved by the Institutional Animal Care and Use Committee at SRI International, Inc (Menlo Park, Calif.). CCI was induced according to the method of Bennett and Xie. Briefly, each animal was anesthetized by intraperitoneal (IP) injection of sodium pentobarbital at a dose of 60 mg/kg. The animal's common sciatic nerve was exposed and freed from adherent tissue at mid-thigh by separating the biceps femoris muscles by blunt dissection. Four loose ligatures were placed 1 mm apart, using chromic gut suture (4-0 absorbable suture; Jorgensen Laboratories, Inc., Loveland, Colo.). Seven animals were randomly assigned to each treatment group. Mechanical allodynia was measured using von Frey monofilaments (Stoelting, Wood Dale, Ill.) with varying stiffness (2.0-15.0 g) on Days −1 (baseline), 8, and 15 as described previously. Animals were placed on a perforated metallic platform and allowed to habituate to their surroundings for a minimum of 15 minutes before testing. The 50% paw withdrawal threshold response was determined by a sequential increasing and/or decreasing of the stimulus strength (the “up-down method” of Dixon). Each filament was applied with enough pressure to cause a buckling effect. Absence of a paw lifting/withdrawal response after 5 seconds prompted the use of the filament of next higher weight. Paw withdrawal indicating a positive response prompted the use of a weaker filament. After the initial response (i.e., paw withdrawal), the testing continued for four additional measurements and was used to calculate the response threshold. Four consecutive positive responses received a score of 0.25 g, and five consecutive negative responses (i.e., no paw withdrawal) received a score of 15 g. The 50% paw withdrawal threshold was calculated using the formula: 10 (Xf+kd)/10,000, where Xf is the final von Frey filament used (log units), k is a value that analyzes the response pattern (taken from the table published by Chaplan et al.), and d is the mean difference between stimuli (log units). The mean and standard error of the mean (SEM) were determined for each treatment group.
# [2] = tested on: chronic constriction injury (CCI) rats; assay: Thermal hyperalgesia: paw withdrawal latency to thermal radiant heat (Hargreaves test) in the chronic constriction injury model; type: in vivo, Wister rats
# Description: This model may mimic pain associated with sciatica in humans. Twenty-eight male Wister rats (Charles River Laboratories, Wilmington, Mass.) weighing 300±26 g the day of surgery (Day 1) were used in this study. All experiments were conducted in accordance with the International Association for the Study of Pain guidelines and approved by the Institutional Animal Care and Use Committee at SRI International, Inc (Menlo Park, Calif.). CCI was induced according to the method of Bennett and Xie. Briefly, each animal was anesthetized by intraperitoneal (IP) injection of sodium pentobarbital at a dose of 60 mg/kg. The animal's common sciatic nerve was exposed and freed from adherent tissue at mid-thigh by separating the biceps femoris muscles by blunt dissection. Four loose ligatures were placed 1 mm apart, using chromic gut suture (4-0 absorbable suture; Jorgensen Laboratories, Inc., Loveland, Colo.). Seven animals were randomly assigned to each treatment group. […] The radiant infrared heat source stimulus intensity was set to IR50 and the cut-off time was set at 15 seconds. Rats were placed on a glass platform and allowed to habituate to the testing chambers for a minimum of 15 minutes prior to each testing session. The thermal stimulus was applied to the plantar surface of the paw. Thermal thresholds were defined as the latency in seconds at the first pain behavior, which includes paw withdrawal, flinching, biting and/or licking of the stimulated paw. The readings for all animals were averaged and the mean and standard error of the mean (SEM) were determined for each treatment group.
# [3] = sulindac 2 mg/kg/day IP for 15 days, CCI rats
# [4] = lovastatin 0.3 mg/kg/day IP for 15 days, CCI rats
# [5] = lovastatin 3 mg/kg/day IP for 15 days, CCI rats
Compound,"pain reduction, von Frey paw withdrawal threshold (mechanical stimulation) vs PBS vehicle [1, 3]","pain reduction, von Frey paw withdrawal threshold (mechanical stimulation) vs PBS vehicle ([1]; sulindac 2 mg/kg/day IP, at 8 and 15 days)","pain reduction, paw withdrawal latency to thermal radiant heat vs PBS vehicle [2, 3]","pain reduction, paw withdrawal latency to thermal radiant heat vs PBS vehicle ([2]; sulindac 2 mg/kg/day IP, at 7 and 14 days)",mechanical allodynia pain behavioral response compared with the 0.3 mg/kg/day group ([1]; lovastatin 40 ng/hr group),"pain reduction, von Frey paw withdrawal threshold (mechanical stimulation) vs PBS vehicle [1, 4]","mechanical allodynia pain behavioral response ([1]; lovastatin 0.3 mg/kg/day, all time points)","pain reduction, von Frey paw withdrawal threshold (mechanical stimulation) vs PBS vehicle [1, 5]","pain reduction, von Frey paw withdrawal threshold (mechanical stimulation) vs PBS vehicle ([1]; lovastatin 3 mg/kg/day IP, at day 15)",mechanical allodynia pain response compared with 50:50 DMSO/PBS vehicle control ([1]; lovastatin 0.4 mcg/hr),"thermal hyperalgesia withdrawal score, course over the study ([2]; high dose lovastatin pump group, 0.4 mcg/hr)","thermal hyperalgesia withdrawal score compared with other statin groups ([2]; high dose lovastatin pump group, 0.4 mcg/hr, day 21)","pain reduction, paw withdrawal latency to thermal radiant heat vs PBS vehicle [2, 4]","thermal withdrawal time as % of per-operative baseline ([2]; lovastatin 0.3 mg/kg/day IP, Day 7)","thermal hyperalgesia pain behavioral response vs 50:50 DMSO/PBS vehicle ([2]; lovastatin 0.3 mg/kg/day IP, all days tested)","thermal withdrawal time as % of per-operative baseline ([2]; lovastatin 0.3 mg/kg/day IP, days 14 and 21)","pain reduction, paw withdrawal latency to thermal radiant heat vs PBS vehicle [2, 5]","pain reduction, paw withdrawal latency to thermal radiant heat vs PBS vehicle ([2]; lovastatin 3 mg/kg/day IP, at day 14)","thermal withdrawal scores as % of baseline ([2]; low dose lovastatin group (100-fold decrease from 0.3 mg/kg/day), all testing days)"
CC1=C(CC(=O)O)c2cc(F)ccc2/C1=C\c1ccc([S+](C)[O-])cc1 (stereo not shown) [sulindac],effective at reducing pain,particularly effective,effective at reducing pain,particularly effective,,,,,,,,,,,,,,,
CC[C@H](C)C(=O)O[C@H]1C[C@@H](C)C=C2C=C[C@H](C)[C@H](CC[C@@H]3C[C@@H](O)CC(=O)O3)[C@H]21 [lovastatin],,,,,probably statistically equivalent,effective at reducing pain,able to reduce this pain behavioral response at all time points,effective at reducing pain,particularly effective,probably statistically equivalent to the vehicle control,steadily improved during the course of the study,statistically equivalent to the other two statin groups,effective at reducing pain,68%,reduced this pain behavioral response at all days tested,61%,effective at reducing pain,particularly effective,~60%
